25 compounds from ChEMBL document CHEMBL1136658, “Design and synthesis of potent, non-peptide inhibitors of HCV NS3 protease” (Bioorg Med Chem Lett, 2003) can be followed below.

Peptide text beside a SMILES is read from it. * marks the point of attachment. X1 = C=CC[C@H](N*)B1OC2CC3CC(C3(C)C)[C@@]2(C)O1

One assay deals with T1, NS3 (Hepatitis C virus, UniProt A3EZJ3). Briefly: Inhibitory concentration against HCV NS3 protease. Further details: species or system Hepacivirus hominis.
T1 sequence (A3EZJ3 whole entry): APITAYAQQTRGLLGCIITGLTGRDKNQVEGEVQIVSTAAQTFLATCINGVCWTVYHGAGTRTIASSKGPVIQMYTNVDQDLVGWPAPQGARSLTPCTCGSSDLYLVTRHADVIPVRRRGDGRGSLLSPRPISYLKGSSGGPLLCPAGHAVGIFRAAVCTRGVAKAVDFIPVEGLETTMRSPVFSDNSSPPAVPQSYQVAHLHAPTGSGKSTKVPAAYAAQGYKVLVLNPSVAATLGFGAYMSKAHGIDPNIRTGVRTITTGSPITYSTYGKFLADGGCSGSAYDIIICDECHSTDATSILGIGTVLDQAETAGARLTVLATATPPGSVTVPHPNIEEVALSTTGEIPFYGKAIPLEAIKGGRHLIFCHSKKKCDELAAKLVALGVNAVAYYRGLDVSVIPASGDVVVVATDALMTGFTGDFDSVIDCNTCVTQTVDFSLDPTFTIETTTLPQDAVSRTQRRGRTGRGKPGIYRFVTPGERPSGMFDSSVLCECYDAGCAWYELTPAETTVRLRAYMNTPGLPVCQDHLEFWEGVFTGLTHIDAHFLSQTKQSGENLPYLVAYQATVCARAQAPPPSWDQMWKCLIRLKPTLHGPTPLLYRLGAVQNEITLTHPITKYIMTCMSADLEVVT
Turning to `C=CC[C@H](NC(=O)[C@@H]1C[C@@H](CCCc2cccc3ccccc23)c2c(Cl)nc(NCC)c(=O)n21)B1OC2CC3CC(C3(C)C)[C@@]2(C)O1` (stereo not given in full), half-maximal inhibition (IC50) required 230 nM. Same read-out and setting: the same measure for `C=CC[C@H](NC(=O)[C@@H]1C[C@@H](CCCc2ccc3ccccc3c2)c2c(Cl)nc(NCc3ccccn3)c(=O)n21)B1OC2CC3CC(C3(C)C)[C@@]2(C)O1` (stereo not given in full): 90 nM. On the same count and under the same terms, the result for `C=CC[C@H](NC(=O)[C@@H]1C[C@@H](CCCc2cccc3ccccc23)c2c(Cl)nc(NCc3cccc(F)c3)c(=O)n21)B1OC2CC3CC(C3(C)C)[C@@]2(C)O1` (stereo not given in full) reads 60 nM.

In turn, `C=CC[C@H](NC(=O)[C@@H]1C[C@@H](CCCc2ccc3ccccc3c2)c2c(Cl)nc(NC)c(=O)n21)B1OC2CC3CC(C3(C)C)[C@@]2(C)O1` (stereo not given in full) had an IC50 of 320 nM.

In turn, `C=CC[C@H](NC(=O)[C@@H]1C[C@@H](Cc2ccccc2)c2c(Cl)nc(NCc3cccc(C(F)(F)F)c3)c(=O)n21)B1OC2CC3CC(C3(C)C)[C@@]2(C)O1` (stereo not given in full) yielded a 50% inhibitory concentration (IC50) of 260 nM.

Compound `C=CC[C@H](NC(=O)[C@@H]1C[C@@H](CCCc2ccc3ccccc3c2)c2c(Cl)nc(NCCCC)c(=O)n21)B1OC2CC3CC(C3(C)C)[C@@]2(C)O1` (stereo not given in full) gave an IC50 of 160 nM.

Consider `C=CC[C@H](NC(=O)[C@@H]1C[C@@H](CCCc2cccc3ccccc23)c2c(Cl)nc(NCc3ccc(O)c(O)c3)c(=O)n21)B1OC2CC3CC(C3(C)C)[C@@]2(C)O1` (stereo not given in full), for which the IC50 was determined as 110 nM. As for `C=CC[C@H](NC(=O)[C@@H]1C[C@@H](CCCc2ccc3ccccc3c2)c2c(Cl)nc(NCc3cccc(C(F)(F)F)c3)c(=O)n21)B1OC2CC3CC(C3(C)C)[C@@]2(C)O1` (stereo not given in full), half-maximal inhibition (IC50) was put at 20 nM. `C=CC[C@H](NC(=O)[C@@H]1C[C@H](CCCc2ccc3ccccc3c2)c2c(Cl)nc(NCc3cccc(C(F)(F)F)c3)c(=O)n21)B1OC2CC3CC(C3(C)C)[C@@]2(C)O1` (stereo not given in full) returned an IC50 of 510 nM.

In the case of `C=CC[C@H](NC(=O)[C@@H]1C[C@@H](Cc2ccc(C)cc2)c2c(Cl)nc(NCc3cccc(C(F)(F)F)c3)c(=O)n21)B1OC2CC3CC(C3(C)C)[C@@]2(C)O1` (stereo not given in full), inhibition was half-maximal at 60 nM (IC50). Compound `C=CC[C@H](NC(=O)[C@@H]1C[C@@H](CCCc2ccc3ccccc3c2)c2c(Cl)nc(NCC3CCCCC3)c(=O)n21)B1OC2CC3CC(C3(C)C)[C@@]2(C)O1` (stereo not given in full) gave an IC50 of 200 nM. Same read-out and setting: the result for `C=CC[C@H](NC(=O)[C@@H]1C[C@@H](Cc2cccc(OC)c2)c2c(Cl)nc(NCc3cccc(C(F)(F)F)c3)c(=O)n21)B1OC2CC3CC(C3(C)C)[C@@]2(C)O1` (stereo not given in full) reads 260 nM.

For the compound `CC[C@H](NC(=O)[C@@H]1C[C@@H](CCCc2ccc3ccccc3c2)c2c(Cl)nc(NCc3cccc(C(F)(F)F)c3)c(=O)n21)B1OC2CC3CC(C3(C)C)[C@@]2(C)O1` (stereo not given in full), the IC50 is 20 nM. Turning to `C=CC[C@H](NC(=O)[C@@H]1C[C@@H](CCCc2ccc3ccccc3c2)c2c(Cl)nc(NCc3ccccc3)c(=O)n21)B1OC2CC3CC(C3(C)C)[C@@]2(C)O1` (stereo not given in full), the IC50 was 240 nM. Still for that read-out and setting: the result for `C=CC[C@H](NC(=O)[C@@H]1C[C@@H](Cc2ccc(OC)cc2)c2c(Cl)nc(NCc3cccc(C(F)(F)F)c3)c(=O)n21)B1OC2CC3CC(C3(C)C)[C@@]2(C)O1` (stereo not given in full) reads 50 nM; that for `C=CC[C@H](NC(=O)[C@@H]1C[C@@H](CCCc2ccc3ccccc3c2)c2c(Cl)nc(N)c(=O)n21)B1OC2CC3CC(C3(C)C)[C@@]2(C)O1` (stereo not given in full), 190 nM. Consider `C=CC[C@H](NC(=O)[C@@H]1C[C@@H](CCCc2cccc3ccccc23)c2c(Cl)nc(NCC(C)C)c(=O)n21)B1OC2CC3CC(C3(C)C)[C@@]2(C)O1` (stereo not given in full), for which the IC50 turned out to be 170 nM. On the same count and under the same terms, the result for `C=CC[C@H](NC(=O)[C@@H]1C[C@@H](Cc2cccc(C)c2)c2c(Cl)nc(NCc3cccc(C(F)(F)F)c3)c(=O)n21)B1OC2CC3CC(C3(C)C)[C@@]2(C)O1` (stereo not given in full) reads 400 nM; that for `C=CC[C@H](NC(=O)[C@@H]1C[C@H](CCCc2ccccc2)c2c(Cl)nc(NCc3cccc(C(F)(F)F)c3)c(=O)n21)B1OC2CC3CC(C3(C)C)[C@@]2(C)O1` (stereo not given in full), 2000 nM. Still for that read-out and setting: the same measure for `C=CC[C@H](NC(=O)[C@@H]1C[C@@H](CCCc2ccc3ccccc3c2)c2c(Cl)nc(NCc3cccc(OC)c3)c(=O)n21)B1OC2CC3CC(C3(C)C)[C@@]2(C)O1` (stereo not given in full): 60 nM; for `C=CC[C@H](NC(=O)[C@@H]1C[C@@H](CCCc2ccccc2)c2c(Cl)nc(NCc3cccc(C(F)(F)F)c3)c(=O)n21)B1OC2CC3CC(C3(C)C)[C@@]2(C)O1` (stereo not given in full): 60 nM; for `C=CC[C@H](NC(=O)[C@@H]1C[C@@H](Cc2ccc(-c3ccccc3)cc2)c2c(Cl)nc(NCc3cccc(C(F)(F)F)c3)c(=O)n21)B1OC2CC3CC(C3(C)C)[C@@]2(C)O1` (stereo not given in full): 60 nM. On the same count and under the same terms, the result for `C=CC[C@H](NC(=O)[C@@H]1CCc2c(Cl)nc(NCc3cccc(C(F)(F)F)c3)c(=O)n21)B1OC2CC3CC(C3(C)C)[C@@]2(C)O1` (stereo not given in full) reads 4600 nM. As for `C=CC[C@H](NC(=O)[C@@H]1C[C@@H](CCCc2cccc3ccccc23)c2c(Cl)nc(NCCC)c(=O)n21)B1OC2CC3CC(C3(C)C)[C@@]2(C)O1` (stereo not given in full), the IC50 came out at 180 nM.

The target in the next assay is T1, NS3. As to the kind of experiment: Inhibitory concentration against HCV NS3 protease was determined. On the set-up: species or system Hepacivirus hominis.
In turn, `C=CC[C@H](NC(=O)[C@@H]1CCCN1C(=O)[C@@H](NC(=O)[C@@H](NC(=O)[C@H](CCC(=O)O)NC(=O)[C@H](CC(=O)O)NC(C)=O)C(C)C)C(C)C)B1OC2CC3CC(C3(C)C)[C@@]2(C)O1` (stereo not given in full) (Ac-DEVVP-X1) registered a Ki of 4 nM.
